Laboratory results from patent US8921398B2 (Boehringer Ingelheim International GmbH, priority 2011, dated 2014).

Biological target: T1, mutant form of the human GPR119 receptor (Homo sapiens, UniProt Q8TDV5, S329A/T327A)
T1 construct: expressed in transfected cells
T1 sequence (Q8TDV5 with tags, fused parts or gaps T327A/S329A): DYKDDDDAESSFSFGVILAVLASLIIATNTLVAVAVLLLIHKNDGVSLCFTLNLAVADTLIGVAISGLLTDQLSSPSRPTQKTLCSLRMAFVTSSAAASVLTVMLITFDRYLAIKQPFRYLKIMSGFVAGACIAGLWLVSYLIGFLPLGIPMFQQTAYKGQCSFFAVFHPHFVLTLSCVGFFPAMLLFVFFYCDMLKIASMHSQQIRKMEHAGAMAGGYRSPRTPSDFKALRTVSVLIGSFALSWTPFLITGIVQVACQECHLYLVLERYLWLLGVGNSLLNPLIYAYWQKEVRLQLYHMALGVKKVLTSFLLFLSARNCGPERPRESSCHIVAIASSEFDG
Assay: LANCE cAMP-384 assay in HEK293 cells stably expressing a mutant form of the human GPR119 receptor
Assay type: cell-based
Conditions: cAMP accumulation, GPR119 stable HEK293 cells, LANCE kit, 20 min at 37° C.
Procedure: Quantitative detection of cAMP accumulation from cells expressing human GPR119 receptor is achieved using Perkin Elmer's LANCE cAMP-384 Kit (Cat#AD0264) according to the manufacturer's protocol. Briefly, HEK293 cells stably expressing a mutant form of the human GPR119 receptor as assay tool (Methionine 1 replaced with the amino acid sequence […], and T327 & S329 changed to alanines; SEQ ID No. 1) are grown to 50-70% confluency in cell culture media (DMEM, 10% heat inactivated Fetal Bovine Serum, 50 I.U./mL penicillin, 50 μg/mL streptomycin, 10 mM HEPES, 20 μg/mL G418 Sulfate). On the day of the assay, GPR119 stable HEK293 cells are lifted from the tissue culture plate and 1000 cells/well are incubated along with various concentrations of test compounds for 20 min at 37° C. Detection Buffer (50 mM HEPES, 10 mM calcium chloride, 0.35% Triton X-100, 1 mg/mL BSA) containing cAMP-specific antibody is then added to all wells and allowed to equilibrate in the dark for 10 minutes at room temperature. Upon equilibration, Detection Buffer containing europium-labeled cAMP tracer complex is added to all wells and allowed to react for 1 hour at room temperature. After 1 hour, bound europium-labeled cAMP tracer is measured using a Perkin Elmer Envision plate reader. The quantity of cAMP generated in each well is derived from a standard curve. EC50 is determined using nonlinear regression analysis of the cAMP values over a range of agonist concentration (12 points spanning the range from 30 μM to 100 pM).

SMILES	EC50 [nM]
Cc1ncnn1-c1ccc(C(=O)N(C2CC2)[C@H]2CCN(c3ccc(C(F)(F)F)cn3)C[C@H]2F)cn1 (single isomer, unassigned) [Example 69]	496
Cc1nnnn1-c1ccc(C(=O)N(C2CC2)[C@H]2CCN(c3ccc(C(F)(F)F)cn3)C[C@H]2F)cn1 (single isomer, unassigned) [Example 70]	127
O=C(c1cnc(-n2cncn2)cn1)N(C1CC1)[C@H]1CCN(c2ccc(C(F)(F)F)cn2)C[C@H]1F (single isomer, unassigned) [Example 71]	94
Cc1nccn1-c1ncc(C(=O)N(C2CC2)[C@H]2CCN(c3ccc(C(F)(F)F)cn3)C[C@H]2F)cn1 (single isomer, unassigned) [Example 72]	56
Cc1nccn1-c1ccc(C(=O)N(C2CC2)[C@H]2CCN(c3ccc(C(F)(F)F)cn3)C[C@H]2F)cn1 (single isomer, unassigned) [Example 73]	391
Cc1ncn(-c2cnc(C(=O)N(C3CC3)[C@H]3CCN(c4ccc(C(F)(F)F)cn4)C[C@H]3F)cn2)n1 (single isomer, unassigned) [Example 74]	411
Cc1nccn1-c1cnc(C(=O)N(C2CC2)[C@H]2CCN(c3ccc(C(F)(F)F)cn3)C[C@H]2F)cn1 (single isomer, unassigned) [Example 75]	341
Cc1ncnn1-c1ccc(C(=O)N(C2CC2)[C@@H]2CCN(c3ccc(C(F)(F)F)cn3)C[C@@H]2F)cn1 (single isomer, unassigned) [Example 76]	46
Cc1nnnn1-c1ccc(C(=O)N(C2CC2)[C@@H]2CCN(c3ccc(C(F)(F)F)cn3)C[C@@H]2F)cn1 (single isomer, unassigned) [Example 77]	13
O=C(c1cnc(-n2cncn2)cn1)N(C1CC1)[C@@H]1CCN(c2ccc(C(F)(F)F)cn2)C[C@@H]1F (single isomer, unassigned) [Example 78]	9
O=C(c1cnc(-n2cncn2)nc1)N(C1CC1)[C@@H]1CCN(c2ccc(C(F)(F)F)cn2)C[C@@H]1F (single isomer, unassigned) [Example 80]	111
Cc1nccn1-c1ccc(C(=O)N(C2CC2)[C@@H]2CCN(c3ccc(C(F)(F)F)cn3)C[C@@H]2F)cn1 (single isomer, unassigned) [Example 81]	34
Cc1ncn(-c2cnc(C(=O)N(C3CC3)[C@@H]3CCN(c4ccc(C(F)(F)F)cn4)C[C@@H]3F)cn2)n1 (single isomer, unassigned) [Example 82]	35
Cc1nccn1-c1cnc(C(=O)N(C2CC2)[C@@H]2CCN(c3ccc(C(F)(F)F)cn3)C[C@@H]2F)cn1 (single isomer, unassigned) [Example 83]	12
CCc1cnc(N2CC[C@@H](N(C(=O)c3ccc(-n4ncnc4C)nc3)C3CC3)[C@@H](F)C2)nc1 (single isomer, unassigned) [Example 84]	15
CCc1cnc(N2CC[C@@H](N(C(=O)c3ccc(-n4nnnc4C)nc3)C3CC3)[C@@H](F)C2)nc1 (single isomer, unassigned) [Example 85]	20
CCc1cnc(N2CC[C@@H](N(C(=O)c3cnc(-n4cncn4)cn3)C3CC3)[C@@H](F)C2)nc1 (single isomer, unassigned) [Example 86]	5
CCc1cnc(N2CC[C@@H](N(C(=O)c3cnc(-n4ccnc4C)nc3)C3CC3)[C@@H](F)C2)nc1 (single isomer, unassigned) [Example 87]	4
CCc1cnc(N2CC[C@@H](N(C(=O)c3ccc(-n4ccnc4C)nc3)C3CC3)[C@@H](F)C2)nc1 (single isomer, unassigned) [Example 88]	29
CCc1cnc(N2CC[C@@H](N(C(=O)c3cnc(-n4cnc(C)n4)cn3)C3CC3)[C@@H](F)C2)nc1 (single isomer, unassigned) [Example 89]	18
CCc1cnc(N2CC[C@@H](N(C(=O)c3cnc(-n4ccnc4C)cn3)C3CC3)[C@@H](F)C2)nc1 (single isomer, unassigned) [Example 90]	44
CCc1cnc(N2CC[C@@H](N(C(=O)c3cnc(-n4cncn4)nc3)C3CC3)[C@@H](F)C2)nc1 (single isomer, unassigned) [Example 91]	202
CCc1cnc(N2CC[C@@H](N(C(=O)c3cnc(-n4cncn4)cn3)C3CC3)[C@@H](F)C2)nc1 (single isomer, unassigned) [Example 92]	609
Cc1ncnn1-c1ccc(C(=O)N(C2CC2)[C@@H]2CCN(c3ncc(Cl)cn3)C[C@@H]2F)cn1 (single isomer, unassigned) [Example 93]	24

SMILES	EC50 [nM]
Cc1nnnn1-c1ccc(C(=O)N(C2CC2)[C@@H]2CCN(c3ncc(Cl)cn3)C[C@@H]2F)cn1 (single isomer, unassigned) [Example 94]	8
Cc1nccn1-c1ncc(C(=O)N(C2CC2)[C@@H]2CCN(c3ncc(Cl)cn3)C[C@@H]2F)cn1 (single isomer, unassigned) [Example 95]	7
O=C(c1cnc(-n2cncn2)nc1)N(C1CC1)[C@@H]1CCN(c2ncc(Cl)cn2)C[C@@H]1F (single isomer, unassigned) [Example 96]	65
Cc1nccn1-c1ccc(C(=O)N(C2CC2)[C@@H]2CCN(c3ncc(Cl)cn3)C[C@@H]2F)cn1 (single isomer, unassigned) [Example 97]	32
Cc1ncn(-c2cnc(C(=O)N(C3CC3)[C@@H]3CCN(c4ncc(Cl)cn4)C[C@@H]3F)cn2)n1 (single isomer, unassigned) [Example 98]	14
Cc1nccn1-c1cnc(C(=O)N(C2CC2)[C@@H]2CCN(c3ncc(Cl)cn3)C[C@@H]2F)cn1 (single isomer, unassigned) [Example 99]	18
Cc1ncnn1-c1ncc(C(=O)N(C2CC2)[C@@H]2CCN(c3ncc(Cl)cn3)C[C@@H]2F)cn1 (single isomer, unassigned) [Example 100]	136
Cc1nccn1-c1ncc(C(=O)N(C2CC2)[C@@H]2CCN(c3ncc(C(F)(F)F)cn3)C[C@@H]2F)cn1 (single isomer, unassigned) [Example 101]	5
O=C(c1cnc(-n2cncn2)nc1)N(C1CC1)[C@@H]1CCN(c2ncc(C(F)(F)F)cn2)C[C@@H]1F (single isomer, unassigned) [Example 102]	50
Cc1ncnn1-c1ncc(C(=O)N(C2CC2)[C@@H]2CCN(c3ccc(C(F)(F)F)cn3)C[C@@H]2F)cn1 (single isomer, unassigned) [Example 103]	391
CCc1cnc(N2CC[C@@H](N(C(=O)c3cn(-c4ccc(C#N)cn4)cn3)C3CC3)[C@@H](F)C2)nc1 (single isomer, unassigned) [Example 107]	188
CCc1cnc(N2CC[C@@H](N(C(=O)c3cn(-c4ccc(S(C)(=O)=O)cc4F)cn3)C3CC3)[C@@H](F)C2)nc1 (single isomer, unassigned) [Example 108]	82
CCc1cnc(N2CCC(N(C(=O)c3cn(-c4ccc(C#N)cc4F)cn3)C3CC3)C(F)C2)nc1 (single isomer, unassigned) [Example 109]	53
CCc1cnc(N2CC[C@@H](N(C(=O)c3cn(-c4ccc(C#N)cn4)c(C)n3)C3CC3)[C@@H](F)C2)nc1 (single isomer, unassigned) [Example 110]	363
CCc1cnc(N2CC[C@@H](N(C(=O)c3cn(-c4ccc(S(C)(=O)=O)cc4F)c(C)n3)C3CC3)[C@@H](F)C2)nc1 (single isomer, unassigned) [Example 111]	1610
CCc1cnc(N2CC[C@@H](N(C(=O)c3cn(-c4ccc(C#N)cc4F)c(C)n3)C3CC3)[C@@H](F)C2)nc1 (single isomer, unassigned) [Example 112]	789
Cc1nccn1-c1ccc(C(=O)N(C2CC2)C2CCN(c3ncc(C(F)(F)F)cc3F)CC2)cn1 [Example 43]	73
Cc1ncnn1-c1ccc(C(=O)N(C2CC2)C2CCN(c3ncc(C(F)(F)F)cc3F)CC2)cn1 [Example 44]	22
O=C(c1cnc(-n2cncn2)cn1)N(C1CC1)C1CCN(c2ncc(C(F)(F)F)cc2F)CC1 [Example 46]	78
O=C(c1cnc(-n2cncn2)nc1)N(C1CC1)C1CCN(c2ncc(C(F)(F)F)cc2F)CC1 [Example 47]	125
Cc1ncn(-c2cnc(C(=O)N(C3CC3)C3CCN(c4ncc(C(F)(F)F)cc4F)CC3)cn2)n1 [Example 48]	27
Cc1nnnn1-c1ccc(C(=O)N(C2CC2)C2CCN(c3ncc(C(F)(F)F)cc3F)CC2)cn1 [Example 49]	9
Cc1ncnn1-c1ncc(C(=O)N(C2CC2)C2CCN(c3ncc(C(F)(F)F)cc3F)CC2)cn1 [Example 50]	148
